Experiments:
[1] = Solubility: amount of PGMEA necessary for dissolving 100 mg of test compound; type: physicochemical; conditions: for PGMEA (amount necessary for dissolving the test compound): 100 mg test compound, 20±5° C., 30 minutes with 30-second strong shaking every 5 minutes, 300 μL or less desirable
Method: The thus obtained sulfonium salt compounds were used as test compounds. PGMEA was added to 100 mg of each test compound, and the amount of PGMEA necessary for dissolving the test compound therein after the elapse of 30 minutes by repeating 30-second strong shaking at 20±5° C. every 5 minutes was measured. Here, “dissolving” means to reach the state where no insoluble matter can be observed by visual inspection, specifically, means that the resultant solution is clear, or a mixture in an arbitrary ratio becomes transparent. […] In Table 1 below, sulfonium salt compounds with an amount of PGMEA of 300 μL or less were evaluated as having desirable properties.

[2] = Ultraviolet-visible absorption spectrum, molecular extinction coefficient at 365 nm; type: physicochemical; conditions: 1×10^−4 mol/L acetonitrile solution; reference range 50 to 2000
Method: A 1×10^−4 mol/L acetonitrile solution of each test compound was prepared, and the molecular extinction coefficient at 365 nm in the ultraviolet-visible absorption spectrum was measured using an ultraviolet-visible spectrophotometer (UV-2400PC, manufactured by SHIMADZU CORPORATION). […] Considering that light would be transmitted to a deep portion of a thick film, the reference range of the molecular extinction coefficient at 365 nm (i-line) was set to 50 to 2000. The sulfonium compounds falling within this range were evaluated as having desirable properties.

| SMILES | PGMEA (amount necessary for dissolving the test compound) [1] [µL] | Molecular extinction coefficient (365 nm) [2] | Solubility in PGMEA (in words) ([1]; PGMEA) |
| --- | --- | --- | --- |
| O=S1(=O)[N-]S(=O)(=O)C(F)(F)C(F)(F)C1(F)F.c1ccc([S+](c2ccccc2)c2ccccc2)cc1 [C. Ex. 1, triphenylsulfonium 1,1,2,2,3,3-hexafluorotrimethylene imide, reference compound] | 300 | 0 |  |
| COc1ccc2ccc(OC)c([S+](c3ccccc3)c3ccccc3)c2c1.O=S1(=O)[N-]S(=O)(=O)C(F)(F)C(F)(F)C1(F)F [C. Ex. 2, 1-(2,7-dimethoxynaphthyl)diphenylsulfonium 1,1,2,2,3,3-hexafluorotrimethylene sulfone imide, reference compound] | 1400 | 2010 |  |
| CCCCOc1ccc2ccc(OCCCC)c([S+](CCCC)CCCC)c2c1.F[P-](F)(F)(F)(F)F [C. Ex. 3, 1-(2,7-di-n-butoxynaphthyl)di-n-butylsulfonium hexafluorophosphate, reference compound] | 1900 | 490 | exceptionally low solubility in PGMEA |
| O=S(=O)([N-]S(=O)(=O)C(F)(F)C(F)(F)C(F)(F)C(F)(F)F)C(F)(F)C(F)(F)C(F)(F)C(F)(F)F.c1ccc([S+](c2ccccc2)c2ccccc2)cc1 [C. Ex. 4, triphenylsulfonium di(1,1,2,2,3,3,4,4,4-nonafluorobutanesulfone)imide, reference compound] | 100 | 0 |  |
| CCCCOc1ccc2ccc(OCCCC)c([S+](c3ccccc3)c3ccccc3)c2c1.O=S(=O)([N-]S(=O)(=O)C(F)(F)C(F)(F)C(F)(F)C(F)(F)F)C(F)(F)C(F)(F)C(F)(F)C(F)(F)F [C. Ex. 5, 1-(2,7-di-n-butoxynaphthyl)diphenylsulfonium di(1,1,2,2,3,3,4,4,4-nonafluorobutanesulfone)imide, reference compound] | 100 | 2930 |  |
| CCCCOc1ccc2ccc(OCCCC)c([S+](CCCC)CCCC)c2c1.O=S(=O)([N-]S(=O)(=O)C(F)(F)C(F)(F)C(F)(F)C(F)(F)F)C(F)(F)C(F)(F)C(F)(F)C(F)(F)F [Ex. 1, 1-(2,7-di-n-butoxynaphthyl)di-n-butylsulfonium di(1,1,2,2,3,3,4,4,4-nonafluorobutanesulfone)imide] | 100 | 580 |  |
| CCCCOc1ccc2ccc(OCCCC)c([S+](C)C)c2c1.O=S(=O)([N-]S(=O)(=O)C(F)(F)C(F)(F)C(F)(F)C(F)(F)F)C(F)(F)C(F)(F)C(F)(F)C(F)(F)F [Ex. 2, 1-(2,7-di-n-butoxynaphthyl)dimethylsulfonium di(1,1,2,2,3,3,4,4,4-nonafluorobutanesulfone)imide] | 100 | 480 |  |
| CCCCOc1ccc2c(OCCCC)ccc([S+](CCCC)CCCC)c2c1.O=S(=O)([N-]S(=O)(=O)C(F)(F)C(F)(F)C(F)(F)C(F)(F)F)C(F)(F)C(F)(F)C(F)(F)C(F)(F)F [Ex. 3, 1-(4,7-di-n-butoxynaphthyl)di-n-butylsulfonium di(1,1,2,2,3,3,4,4,4-nonafluorobutanesulfone)imide] | 100 | 810 |  |
| CCCCOc1ccc2ccc(OCCCC)c([S+](CCCC)CCCC)c2c1.O=S1(=O)[N-]S(=O)(=O)C(F)(F)C(F)(F)C1(F)F [Ex. 4, 1-(2,7-di-n-butoxynaphthyl)di-n-butylsulfonium 1,1,2,2,3,3-hexafluorotrimethylene sulfone imide] | 200 | 700 |  |
| CCCCOc1cc(OCCCC)c2ccccc2c1[S+](CCCC)CCCC.O=S(=O)([N-]S(=O)(=O)C(F)(F)C(F)(F)C(F)(F)C(F)(F)F)C(F)(F)C(F)(F)C(F)(F)C(F)(F)F [Ex. 5, 1-(2,4-di-n-butoxynaphthyl)di-n-butylsulfonium di(1,1,2,2,3,3,4,4,4-nonafluorobutanesulfone)imide] | 100 | 100 |  |
| CCCCOc1ccc2ccc(OCCCC)c([S+](CCCC)CCCC)c2c1.O=S(=O)([O-])C(F)(F)C(F)(F)C(F)(F)C(F)(F)F [Ex. 6, 1-(2,7-di-n-butoxynaphthyl)di-n-butylsulfonium 1,1,2,2,3,3,4,4,4-nonafluorobutanesulfonate] | 100 | 690 |  |
| CCCCOc1ccc([S+](CCCC)CCCC)c2c(OCCCC)cccc12.O=S(=O)([N-]S(=O)(=O)C(F)(F)F)C(F)(F)F [Ex. 7, 1-(4,8-di-n-butoxynaphthyl)di-n-butylsulfonium di(1,1,1-trifluoromethanesulfone)imide] | 100 | 570 |  |
| CCCCOc1ccc([S+](CCCC)CCCC)c2c(OCCCC)cccc12.O=S(=O)([N-]S(=O)(=O)C(F)(F)C(F)(F)C(F)(F)C(F)(F)F)C(F)(F)C(F)(F)C(F)(F)C(F)(F)F [Ex. 8, 1-(4,8-di-n-butoxynaphthyl)di-n-butylsulfonium di(1,1,2,2,3,3,4,4,4-nonafluorobutanesulfone)imide] | 100 | 620 |  |
| CCCCOc1ccc2ccc(OCCCC)c([S+](CCCC)CCCC)c2c1.O=S(=O)([N-]S(=O)(=O)C(F)(F)F)C(F)(F)F [Ex. 9, 1-(2,7-di-n-butoxynaphthyl)di-n-butylsulfonium di(1,1,1-trifluoromethanesulfone)imide] | 200 | 560 |  |
| CCCCOc1ccc2c(OCCCC)ccc([S+](CCCC)CCCC)c2c1.O=S(=O)([N-]S(=O)(=O)C(F)(F)F)C(F)(F)F [Ex. 10, 1-(4,7-di-n-butoxynaphthyl)di-n-butylsulfonium di(1,1,1-trifluoromethanesulfone)imide] | 100 | 940 |  |
| CCCCCCCCOc1ccc2ccc(OCCCCCCCC)c([S+](C)C)c2c1.O=S(=O)([N-]S(=O)(=O)C(F)(F)F)C(F)(F)F [Ex. 11, 1-(2,7-di-n-octoxynaphthyl)dimethylsulfonium di(1,1,1-trifluoromethanesulfone)imide] | 100 | 440 |  |
| CCCCOc1ccc2ccc(OCCCC)c([S+](C(C)C)C(C)C)c2c1.O=S(=O)([N-]S(=O)(=O)C(F)(F)F)C(F)(F)F [Ex. 12, 1-(2,7-di-n-butoxynaphthyl)diisopropyl sulfonium di(1,1,1-trifluoromethanesulfone)imide] | 100 | 880 |  |
| CCCCOc1ccc2ccc(OCCCC)c([S+](C(C)C)C(C)C)c2c1.O=S(=O)([N-]S(=O)(=O)C(F)(F)C(F)(F)C(F)(F)C(F)(F)F)C(F)(F)C(F)(F)C(F)(F)C(F)(F)F [Ex. 13, 1-(2,7-di-n-butoxynaphthyl)diisopropyl sulfonium di(1,1,2,2,3,3,4,4,4-nonafluorobutanesulfone)imide] | 100 | 1030 |  |

— patent publication US9465288B2, “Sulfonium salt compound, method for producing the same, and photoacid generator” (DSP GOKYO FOOD & CHEMICAL CO., LTD., priority 2012, dated 2016)
